Results as given in patent US20250129070A1, “BIFUNCTIONAL ANDROGEN RECEPTOR COMPOUNDS” (priority 2023, published 2025).

Experiments:
Assay type in all cases: cell-based
AR / CBP ternary complex = test: Ternary complex formation assay (sandwich ELISA, AR capture / CBP detection) in VCaP cell lysates; conditions: 1.5 hours treatment, sandwich ELISA (AR capture, CBP or p300 detection)
Summary of the method: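 VCaP cells (50K/well, 5% charcoal-stripped FBS, ≥3 days) treated with bifunctional compound for 1.5 h, then lysed 30 min at 4 °C. AR captured on anti-AR (AR 441) plates; bound CBP or p300 detected by rabbit mAb plus HRP secondary. QuantaRed chemifluorescence read at ex 570/em 585, immediately and at 5 and 15 min.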

VCaP cells = test: VCaP growth inhibition assay; conditions: 30 pM R1881, 9 days, CTG
Summary of the method: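 VCaP cells in phenol red-free DMEM/5% CSS, pre-incubated 72 h, then stimulated with R1881 (final 30 pM) and treated with 1:5 serial dilutions (final 100 nM to 10 fM) for 9 days at 37 °C. Viability by CellTiter-Glo luminescence; IC50 from 4-parameter logistic fit of RLU vs concentration.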

HEK-293 cells = test: HEK-293 growth inhibition assay; conditions: 3 days, CTG
Procedure: Cluster plates are returned to the incubator (37*C/5% CO2) for 24 hours prior to treatment. […] Cluster plates are returned to the incubator for 3 days.
After the 3-day treatment period, 100 uL media was removed from each well by aspiration and 100 uL room temperature CTG reagent (Promega Cat #G7573) is added back to each well. The cluster plates are placed on a shaker and incubated at room temperature for 20 minutes. Following this shaking/incubation, cluster plates are read on a luminometer (BMG ClarioStar). IC50 values are obtained by graphing the RLU data vs. compound concentration with nonlinear regression 4-parameter logistic curves (GraphPad Prism).

Row | Compound | EC50 (AR / CBP ternary complex) [nM] | IC50 (VCaP cells) [nM] | IC50 (HEK-293 cells) [nM]
1 | CNC(=O)N1CCc2c(c(N3CCCc4cc(-c5cnn(C)c5)c(C(F)F)cc43)nn2C2CCN(Cc3ncc(C(=O)NC4C(C)(C)C(Oc5ccc(C#N)c(Cl)c5)C4(C)C)cn3)CC2)C1 (stereo not shown) [Compound 91, 1-[1-[[5-[[3-(3-chloro-4-cyano-phenoxy)-2,2,4,4-tetramethyl-cyclobutyl]carbamoyl]pyrimidin-2-yl]methyl]-4-piperidyl]-3-[7-(difluoromethyl)-6-(1-methylpyrazol-4-yl)-3,4-dihydro-2H-quinolin-1-yl]-N-methyl-6,7-dihydro-4H-pyrazolo[4,3-c]pyridine-5-carboxamide] | > 100 | > 100 | > 10000
2 | COc1cc(OC2C(C)(C)C(NC(=O)c3ccc(N4CC5(CCC(N6CCC(n7nc(N8CCCc9cc(-c%10cnn(C)c%10)c(C)cc98)c8c7CCN(C(C)=O)C8)CC6)CC5)C4)cc3)C2(C)C)ccc1C#N (stereo not shown) [Compound 449, 4-[7-[4-[5-acetyl-3-[7-methyl-6-(1-methylpyrazol-4-yl)-3,4-dihydro-2H-quinolin-1-yl]-6,7-dihydro-4H-pyrazolo[4,3-c]pyridin-1-yl]-1-piperidyl]-2-azaspiro[3.5]nonan-2-yl]-N-[3-(4-cyano-3-methoxy-phenoxy)-2,2,4,4-tetramethyl-cyclobutyl]benzamide] | < 1 | 0.1 to 1 | 
3 | COc1cc(OC2C(C)(C)C(NC(=O)c3ccc(N4CC[C@H](N5CCC(n6nc(N7CCCc8cc(-c9cnn(C)c9)c(C(F)F)cc87)c7c6CCN(C(C)=O)C7)CC5)C4)cc3)C2(C)C)ccc1C#N (stereo partly drawn) [Compound 336, 4-[(3S)-3-[4-[5-acetyl-3-[7-(difluoromethyl)-6-(1-methylpyrazol-4-yl)-3,4-dihydro-2H-quinolin-1-yl]-6,7-dihydro-4H-pyrazolo[4,3-c]pyridin-1-yl]-1-piperidyl]pyrrolidin-1-yl]-N-[3-(4-cyano-3-methoxy-phenoxy)-2,2,4,4-tetramethyl-cyclobutyl]benzamide] | < 1 | 1 to 100 | 
4 | CC(=O)N1CCc2c(c(N3CCCc4cc(-c5cnn(C)c5)c(C(F)F)cc43)nn2C2CCN(CC#Cc3ncc(C(=O)NC4C(C)(C)C(Oc5ccc(C#N)c(Cl)c5)C4(C)C)cn3)CC2)C1 (stereo not shown) [Compound 19, 2-[3-[4-[5-acetyl-3-[7-(difluoromethyl)-6-(1-methylpyrazol-4-yl)-3,4-dihydro-2H-quinolin-1-yl]-6,7-dihydro-4H-pyrazolo[4,3-c]pyridin-1-yl]-1-piperidyl]prop-1-ynyl]-N-[3-(3-chloro-4-cyano-phenoxy)-2,2,4,4-tetramethyl-cyclobutyl]pyrimidine-5-carboxamide] | < 1 | 0.1 to 1 | 
5 | CC(=O)N1CCc2c(c(N3CCCc4cc(-c5cnn(C)c5)c(C(F)F)cc43)nn2C2CCN([C@H]3CCCN(c4ncc(C(=O)NC5C(C)(C)C(Oc6ccc(C#N)c(Cl)c6)C5(C)C)cn4)C3)CC2)C1 (stereo partly drawn) [Compound 397, 2-[(3S)-3-[4-[5-acetyl-3-[7-(difluoromethyl)-6-(1-methylpyrazol-4-yl)-3,4-dihydro-2H-quinolin-1-yl]-6,7-dihydro-4H-pyrazolo[4,3-c]pyridin-1-yl]-1-piperidyl]-1-piperidyl]-N-[3-(3-chloro-4-cyano-phenoxy)-2,2,4,4-tetramethyl-cyclobutyl]pyrimidine-5-carboxamide] | 1 to 10 | > 100 | 
6 | CC(=O)N1CCc2c(c(N3CCCc4cc(-c5cnn(C)c5)c(C(F)F)cc43)nn2C2CCN(C3CC(Oc4ncc(C(=O)NC5C(C)(C)C(Oc6ccc(C#N)c(Cl)c6)C5(C)C)cn4)C3)CC2)C1 (stereo not shown) [Compound 376, 2-[3-[4-[5-acetyl-3-[7-(difluoromethyl)-6-(1-methylpyrazol-4-yl)-3,4-dihydro-2H-quinolin-1-yl]-6,7-dihydro-4H-pyrazolo[4,3-c]pyridin-1-yl]-1-piperidyl]cyclobutoxy]-N-[3-(3-chloro-4-cyano-phenoxy)-2,2,4,4-tetramethyl-cyclobutyl]pyrimidine-5-carboxamide] | < 1 | 0.1 to 1 | 
7 | COc1cc(OC2C(C)(C)C(NC(=O)c3ccc(OC4CC5(C4)CC(N4CCC(n6nc(N7CCCc8cc(-c9cnn(C)c9)c(C(F)F)cc87)c7c6CCN(C(C)=O)C7)CC4)C5)cc3)C2(C)C)ccc1C#N (stereo not shown) [Compound 386, 4-[6-[4-[5-acetyl-3-[7-(difluoromethyl)-6-(1-methylpyrazol-4-yl)-3,4-dihydro-2H-quinolin-1-yl]-6,7-dihydro-4H-pyrazolo[4,3-c]pyridin-1-yl]-1-piperidyl]spiro[3.3]heptan-2-yl]oxy-N-[3-(4-cyano-3-methoxy-phenoxy)-2,2,4,4-tetramethyl-cyclobutyl]benzamide] | < 1 | 0.1 to 1 | 
8 | CC(=O)N1CCc2c(c(N3CCCc4cc(C#N)c(C(F)F)cc43)nn2C2CCN(CC3CCN(c4ncc(C(=O)NC5C(C)(C)C(Oc6ccc(C#N)c(Cl)c6)C5(C)C)cn4)CC3(C)C)CC2)C1 (stereo not shown) [Compound 450, 2-[4-[[4-[5-acetyl-3-[6-cyano-7-(difluoromethyl)-3,4-dihydro-2H-quinolin-1-yl]-6,7-dihydro-4H-pyrazolo[4,3-c]pyridin-1-yl]-1-piperidyl]methyl]-3,3-dimethyl-1-piperidyl]-N-[3-(3-chloro-4-cyano-phenoxy)-2,2,4,4-tetramethyl-cyclobutyl]pyrimidine-5-carboxamide] | < 1 | 0.1 to 1 | 

Now from value to compound, other results behind:

Row | EC50 (AR / CBP ternary complex) [nM] | IC50 (VCaP cells) [nM] | Compound | IC50 (HEK-293 cells) [nM]
9 | < 1 | ≤ 0.1 | CC(=O)N1CCc2c(c(N3CCCc4cc(-c5cnn(C)c5)c(C(F)F)cc43)nn2C2CCN(CC3CCN(c4ncc(C(=O)NC5C(C)(C)C(Oc6ccc(C#N)c(Cl)c6)C5(C)C)cn4)CC3(C)C)CC2)C1 (stereo not shown) [Compound 356, 2-[4-[[4-[5-acetyl-3-[7-(difluoromethyl)-6-(1-methylpyrazol-4-yl)-3,4-dihydro-2H-quinolin-1-yl]-6,7-dihydro-4H-pyrazolo[4,3-c]pyridin-1-yl]-1-piperidyl]methyl]-3,3-dimethyl-1-piperidyl]-N-[3-(3-chloro-4-cyano-phenoxy)-2,2,4,4-tetramethyl-cyclobutyl]pyrimidine-5-carboxamide] | > 1000
10 | < 1 | 0.1 to 1 | CC(=O)N1CCc2c(c(Nc3ccc(-c4cnn(C)c4)cc3F)nn2C2CCN(C(=O)CN3CCN(c4ncc(C(=O)NC5C(C)(C)C(Oc6ccc(C#N)c(Cl)c6)C5(C)C)cn4)CC3)CC2)C1 (stereo not shown) [Compound 66, 2-[4-[2-[4-[5-acetyl-3-[2-fluoro-4-(1-methylpyrazol-4-yl)anilino]-6,7-dihydro-4H-pyrazolo[4,3-c]pyridin-1-yl]-1-piperidyl]-2-oxo-ethyl]piperazin-1-yl]-N-[3-(3-chloro-4-cyano-phenoxy)-2,2,4,4-tetramethyl-cyclobutyl]pyrimidine-5-carboxamide] | > 10000
11 |  | ≤ 0.1 | CC(=O)N1CCc2c(c(-c3cccc4cc(-c5ccc(C(=O)NCC6CCN(c7ncc(C(=O)NC8C(C)(C)C(Oc9ccc(C#N)c(Cl)c9)C8(C)C)cn7)CC6)nc5)ncc34)nn2C2CCOCC2)C1 (stereo not shown) [Compound 110, 2-[4-[[[5-[8-(5-acetyl-1-tetrahydropyran-4-yl-6,7-dihydro-4H-pyrazolo[4,3-c]pyridin-3-yl)-3-isoquinolyl]pyridine-2-carbonyl]amino]methyl]-1-piperidyl]-N-[3-(3-chloro-4-cyano-phenoxy)-2,2,4,4-tetramethyl-cyclobutyl]pyrimidine-5-carboxamide] | > 10000
12 | < 1 | 1 to 100 | CN1C(=O)CCc2cc(N3CCCc4cc(-c5ccc(CCC6CCN(c7ncc(C(=O)NC8C(C)(C)C(Oc9ccc(C#N)c(Cl)c9)C8(C)C)cn7)CC6)nc5)c(C(F)F)cc43)ccc21 (stereo not shown) [Compound 239, N-[3-(3-chloro-4-cyano-phenoxy)-2,2,4,4-tetramethyl-cyclobutyl]-2-[4-[2-[5-[7-(difluoromethyl)-1-(1-methyl-2-oxo-3,4-dihydroquinolin-6-yl)-3,4-dihydro-2H-quinolin-6-yl]-2-pyridyl]ethyl]-1-piperidyl]pyrimidine-5-carboxamide] | 
13 | 1 to 10 | 0.1 to 1 | CC(=O)N1CCc2c(c(-c3cccc4cc(-c5ccc(CCC6CC7(C6)CN(c6ncc(C(=O)NC8C(C)(C)C(Oc9ccc(C#N)c(Cl)c9)C8(C)C)cn6)C7)nc5)ncc34)nn2C)C1 (stereo not shown) [Compound 229, 2-[6-[2-[5-[8-(5-acetyl-1-methyl-6,7-dihydro-4H-pyrazolo[4,3-c]pyridin-3-yl)-3-isoquinolyl]-2-pyridyl]ethyl]-2-azaspiro[3.3]heptan-2-yl]-N-[3-(3-chloro-4-cyano-phenoxy)-2,2,4,4-tetramethyl-cyclobutyl]pyrimidine-5-carboxamide] | 
14 | 1 to 10 | 0.1 to 1 | CC(=O)N1CCc2c(c(-c3cccc4cc(-c5ccc(CC6CC7(C6)CN(c6ncc(C(=O)NC8C(C)(C)C(Oc9ccc(C#N)c(Cl)c9)C8(C)C)cn6)C7)nc5)ncc34)nn2C2CCOCC2)C1 (stereo not shown) [Compound 228, 2-[6-[[5-[8-(5-acetyl-1-tetrahydropyran-4-yl-6,7-dihydro-4H-pyrazolo[4,3-c]pyridin-3-yl)-3-isoquinolyl]-2-pyridyl]methyl]-2-azaspiro[3.3]heptan-2-yl]-N-[3-(3-chloro-4-cyano-phenoxy)-2,2,4,4-tetramethyl-cyclobutyl]pyrimidine-5-carboxamide] | 
